Results on four molecules are retold here after article PMC10312992 (ACS Omega, 2023).

In one data set the test system is α-glucosidase. Kind of data set: α-glucosidase inhibition assay. In kind it is biochemical. To be noted: at 0.5 mM; mean ± S.E.M., n = 3.
Data set [1] deals with erythrocytes (heparinized bovine blood). The data set is described as follows: hemolytic activity. In kind it is cell-based. To be noted: 35 min at 37 °C, 10^8 cells/mL; PBS negative control 2.45 ± 0.01%.

As to `COC(=O)c1ccccc1NC(=O)C(C)Sc1nnc(Cc2c[nH]c3ccccc23)o1` (stereo not shown) [8l, N-((2-Methoxycarbonyl)phenyl)-2-({5-((1H-indol-3-yl)methyl)-1,3,4-oxadiazol-2-yl}sulfanyl)propanamide], the “α-glucosidase (%) inhibition” value with α-glucosidase worked out at 97.56 ± 0.57%. Moreover, the “hemolysis (%)” value in data set [1] was found to be 8.16 ± 0.02%.
Taken in the same sequence, the figures for `CCc1ccccc1NC(=O)C(C)Sc1nnc(Cc2c[nH]c3ccccc23)o1` (stereo not shown) [8h, N-(2-Ethylphenyl)-2-({5-((1H-indol-3-yl)methyl)-1,3,4-oxadiazol-2-yl}sulfanyl)propanmide] were 98.21 ± 0.31% and 0.83 ± 0.01%.
For the molecule `CC(Sc1nnc(Cc2c[nH]c3ccccc23)o1)C(=O)NCCc1ccccc1` (stereo not shown) [8d, N-(2-Phenethyl)-2-({5-((1H-indol-3-yl)methyl)-1,3,4-oxadiazol-2-yl}sulfanyl)propanamide], the “α-glucosidase (%) inhibition” value in the data set on α-glucosidase is 93.38 ± 0.38%. The “hemolysis (%)” value in data set [1] is 0.05 ± 0.01%.
Turning to `C[C@H]1O[C@H](O[C@H]2[C@H](O)[C@@H](O)[C@@H](O[C@H]3[C@H](O)[C@@H](O)C(O)O[C@@H]3CO)O[C@@H]2CO)[C@H](O)[C@@H](O)[C@@H]1N[C@H]1C=C(CO)[C@@H](O)[C@H](O)[C@H]1O` (stereo partly shown) [acarbose, reference compound], the “α-glucosidase (%) inhibition” value with α-glucosidase amounted to 92.23 ± 0.14%.
